This note sets out measurements from patent publication US8586591B2, “Aminopyrazine derivative and medicine” (Nippon Shinyaku Co., Ltd., priority 2009, dated 2013).

In assay [1] the target is T1, JAK3 tyrosine kinase (Homo sapiens, UniProt P52333).
T1 construct: purchased Carnabioscience Co
T1 sequence (P52333 1-1124): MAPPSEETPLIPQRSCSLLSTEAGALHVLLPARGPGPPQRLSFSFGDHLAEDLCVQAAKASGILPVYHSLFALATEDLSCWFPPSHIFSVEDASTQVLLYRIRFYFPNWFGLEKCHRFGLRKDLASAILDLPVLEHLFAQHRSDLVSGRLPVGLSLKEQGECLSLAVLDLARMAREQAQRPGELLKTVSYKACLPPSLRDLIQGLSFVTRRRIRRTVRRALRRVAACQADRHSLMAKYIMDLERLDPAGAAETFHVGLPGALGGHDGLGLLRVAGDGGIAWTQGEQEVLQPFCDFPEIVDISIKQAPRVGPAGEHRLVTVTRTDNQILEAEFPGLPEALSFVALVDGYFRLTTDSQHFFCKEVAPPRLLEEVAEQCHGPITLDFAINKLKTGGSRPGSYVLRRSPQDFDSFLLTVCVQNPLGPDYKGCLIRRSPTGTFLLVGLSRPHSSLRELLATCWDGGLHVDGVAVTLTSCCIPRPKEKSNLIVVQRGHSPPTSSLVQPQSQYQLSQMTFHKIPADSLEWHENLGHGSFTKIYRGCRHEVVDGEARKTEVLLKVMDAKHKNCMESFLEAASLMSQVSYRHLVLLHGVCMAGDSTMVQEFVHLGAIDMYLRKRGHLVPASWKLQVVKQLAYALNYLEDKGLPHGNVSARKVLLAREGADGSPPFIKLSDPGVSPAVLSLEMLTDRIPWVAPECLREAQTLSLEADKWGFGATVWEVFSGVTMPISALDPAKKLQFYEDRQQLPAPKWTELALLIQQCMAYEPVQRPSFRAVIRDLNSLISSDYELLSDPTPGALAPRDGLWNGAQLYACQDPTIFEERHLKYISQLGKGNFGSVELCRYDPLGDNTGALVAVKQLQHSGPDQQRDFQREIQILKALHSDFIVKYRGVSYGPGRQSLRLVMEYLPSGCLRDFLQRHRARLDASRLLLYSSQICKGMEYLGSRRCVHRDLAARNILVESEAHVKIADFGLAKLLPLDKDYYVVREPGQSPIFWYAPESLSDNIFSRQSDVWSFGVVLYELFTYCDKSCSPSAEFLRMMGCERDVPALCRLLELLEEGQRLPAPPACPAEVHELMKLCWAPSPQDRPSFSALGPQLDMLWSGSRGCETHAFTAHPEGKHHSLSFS
Nature of the assay: Test 1: inhibitory activity to JAK3 tyrosine kinase (ELISA). Type of assay: biochemical. The note with it: 25 μM ATP in substrate solution, 30° C. for 1 hour, n=2. In short, it runs like this:
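ELISA of JAK3 kinase activity with absorbance read at 450 nm. Compounds were tested from DMSO dilution series at 100-fold the measurement concentrations (1000–0.01 μM), diluted up to 20 times in assay buffer, against a DMSO negative control. IC50 was estimated by non-linear regression of absorbance.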
In general terms: In an ELISA, binding on a coated surface is turned into a signal by an enzyme label.

For assay [2], the target named is T2, JAK2 tyrosine kinase (Homo sapiens, UniProt O60674).
T2 construct: purchased Carnabioscience Co
T2 sequence (O60674 whole entry): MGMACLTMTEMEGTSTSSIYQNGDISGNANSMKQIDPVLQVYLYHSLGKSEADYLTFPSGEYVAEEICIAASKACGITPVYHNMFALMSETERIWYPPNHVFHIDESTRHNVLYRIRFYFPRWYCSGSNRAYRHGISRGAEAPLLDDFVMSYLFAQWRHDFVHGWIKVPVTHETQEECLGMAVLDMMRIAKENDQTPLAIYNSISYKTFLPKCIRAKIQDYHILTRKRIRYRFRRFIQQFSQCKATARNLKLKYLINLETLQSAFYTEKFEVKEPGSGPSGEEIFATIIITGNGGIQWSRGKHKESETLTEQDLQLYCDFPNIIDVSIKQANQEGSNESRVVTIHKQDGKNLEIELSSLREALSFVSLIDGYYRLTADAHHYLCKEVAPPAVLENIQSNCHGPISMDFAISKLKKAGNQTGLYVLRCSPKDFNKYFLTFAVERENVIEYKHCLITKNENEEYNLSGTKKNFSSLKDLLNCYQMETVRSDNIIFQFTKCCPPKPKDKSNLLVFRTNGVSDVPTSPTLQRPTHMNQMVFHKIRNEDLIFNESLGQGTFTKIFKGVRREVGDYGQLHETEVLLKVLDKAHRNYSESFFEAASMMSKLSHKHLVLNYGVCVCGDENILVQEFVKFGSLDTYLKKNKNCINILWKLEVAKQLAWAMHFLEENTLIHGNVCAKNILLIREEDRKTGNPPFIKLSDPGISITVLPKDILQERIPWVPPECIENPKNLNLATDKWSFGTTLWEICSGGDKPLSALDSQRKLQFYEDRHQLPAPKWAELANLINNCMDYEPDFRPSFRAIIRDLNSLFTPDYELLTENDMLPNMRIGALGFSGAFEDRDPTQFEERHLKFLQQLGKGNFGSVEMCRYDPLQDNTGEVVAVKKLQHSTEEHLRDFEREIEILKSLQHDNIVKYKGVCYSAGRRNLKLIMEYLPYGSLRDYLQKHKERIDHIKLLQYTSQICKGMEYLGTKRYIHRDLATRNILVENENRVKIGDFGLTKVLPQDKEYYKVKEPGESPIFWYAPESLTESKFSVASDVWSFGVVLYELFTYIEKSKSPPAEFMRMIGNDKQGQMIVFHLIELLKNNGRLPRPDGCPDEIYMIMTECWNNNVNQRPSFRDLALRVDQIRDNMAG
In words: Test 1: inhibitory activity to JAK2 tyrosine kinase (ELISA). It is filed as biochemical. Particulars: 25 μM ATP in substrate solution, 30° C. for 1 hour, n=2. An outline of the steps:
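Human JAK2 (diluted to 0.75 nM before addition) phosphorylated a biotinylated peptide on streptavidin plates for 1 h at 30 °C. The substrate mix held 625 nM peptide, 25 μM ATP and 25 mM MgCl2 in 15 mM Tris pH 7.5, 0.01% Tween-20 and 1 mM DTT. Phosphotyrosine was detected by HRP antibody/TMB at 450 nm, and IC50 was obtained by non-linear regression; duplicates were run.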

Counter-ions that a name gives are not always drawn.

Usually IC50 stands for the point on the concentration scale where inhibition reaches its midpoint. Read a low IC50 as greater potency in that assay. Regarding `C[C@H](Nc1nc(Nc2cnccn2)cc(-c2ccccn2)n1)c1ccc(F)cc1` [Example 14, (S)—N^2-[1-(4-Fluorophenyl)ethyl]-N^4-(pyrazin-2-yl)-6-(pyridin-2-yl)pyrimidine-2,4-diamine], the IC50 is 120 nM in assay [1] and 1.9 nM in assay [2].
The matching figures for `C[C@H](Nc1nc(Nc2cnccn2)cc(N2CCC3(CC2)OCCO3)n1)c1ccc(F)cc1` [Example 111, N^2-[(S)-1-(4-Fluorophenyl)ethyl]-N^4-(pyrazin-2-yl)-6-(1,4-dioxa-8-azaspiro[4.5]decan-8-yl)pyrimidine-2,4-diamine]: 110 nM and 1.6 nM.
The matching figures for `C[C@H](Nc1nc(Nc2cnccn2)cc(N2CC(NC(N)=O)C2)n1)c1ccc(F)cc1` [Example 227, (S)-1-(1-{2-[1-(4-Fluorophenyl)ethylamino]-6-(pyrazin-2-ylamino)pyrimidin-4-yl}azetidin-3-yl)urea]: 20 nM and 1.1 nM.
The matching figures for `CC(C)C1(O)CN(c2cc(Nc3cnccn3)nc(N[C@@H](C)c3ccc(F)cc3)c2)C1` [Example 204, (S)-1-{2-[1-(4-Fluorophenyl)ethylamino]-6-(pyrazin-2-ylamino)pyridin-4-yl}-3-isopropylazetidin-3-ol hydrochloride]: 220 nM and 8.1 nM.
On to `C[C@H](Nc1nc(Nc2cnccn2)cc(-c2cncc(C(N)=O)c2)n1)c1ccc(F)cc1` [Example 84, (S)-5-{2-[1-(4-Fluorophenyl)ethylamino]-6-(pyrazin-2-ylamino)pyrimidin-4-yl}nicotinamide], for which the values for the IC50 in assay [1] and in assay [2] were 170 nM and 2 nM, respectively.
Consider `C[C@H](Nc1nc(Nc2cnccn2)cc(N2CC(C)(O)C2)n1)c1ccc(F)cc1` [Example 184, (S)-1-{2-[1-(4-Fluorophenyl)ethylamino]-6-(pyrazin-2-ylamino)pyrimidin-4-yl}-3-methylazetidin-3-ol hydrochloride], for which the results for the half-inhibitory concentration (IC50) in assay [1] and in assay [2] were 45 nM and 0.92 nM, respectively.
The matching figures for `C[C@H](Nc1cccc(Nc2cnccn2)n1)c1ccc(F)cc1` [Example 117, (S)—N^2-[1-(4-Fluorophenyl)ethyl]-N^6-(pyrazin-2-yl)pyridine-2,6-diamine dihydrochloride]: 190 nM and 2.7 nM.
The matching figures for `Cc1cnc(CNc2cc(Nc3cnccn3)nc(N[C@@H](C)c3ccc(F)cc3)n2)cn1` [Example 102, (S)—N^2-[1-(4-Fluorophenyl)ethyl]-N^4-[(5-methylpyrazin-2-yl)methyl]-N^6-(pyrazin-2-yl)pyrimidine-2,4,6-triamine hydrochloride]: 140 nM and 2.6 nM.
The matching figures for `C[C@H](Nc1nc(NCCN)cc(Nc2cnccn2)n1)c1ccc(F)cc1` [Example 76, (S)—N^4-(2-Aminoethyl)-N^2-[1-(4-fluorophenyl)ethyl]-N^6-(pyrazin-2-yl)pyrimidine-2,4,6-triamine dihydrochloride]: 57 nM and 2.5 nM.
Take `C[C@H](Nc1nc(Nc2cnccn2)cc(N2CCCNC2=O)n1)c1ccc(F)cc1` [Example 18, (S)-1-{2-[1-(4-Fluorophenyl)ethylamino]-6-(pyrazin-2-ylamino)pyrimidin-4-yl}tetrahydropyrimidin-2(1H)-one]: the figures for the IC50 in assay [1] and in assay [2] were 130 nM and 3 nM, respectively.
The matching figures for `C[C@H](Nc1nc(NCCNS(C)(=O)=O)cc(Nc2cnccn2)n1)c1ccc(F)cc1` [Example 77, (S)—N-(2-{2-[1-(4-Fluorophenyl)ethylamino]-6-(pyrazin-2-ylamino)pyrimidin-4-ylamino}ethyl)methanesulfonamide hydrochloride]: 37 nM and 0.73 nM.
The matching figures for `C[C@H](Nc1nc(Nc2cnccn2)cc(-c2ccnc(O)c2)n1)c1ccc(F)cc1` [Example 25, (S)-4-{2-[1-(4-Fluorophenyl)ethylamino]-6-(pyrazin-2-ylamino)pyrimidin-4-yl}pyridin-2-ol]: 100 nM and 0.97 nM.
The matching figures for `CC(=O)c1cc(Nc2cnccn2)nc(N[C@@H](C)c2ccc(F)cc2)c1` [Example 182, (S)-1-{2-[1-(4-Fluorophenyl)ethylamino]-6-(pyrazin-2-ylamino)pyridin-4-yl}ethanone hydrochloride]: 440 nM and 6.4 nM.
For `CCCCNC(=O)c1cc(Nc2cnccn2)nc(N[C@@H](C)c2ccc(F)cc2)c1` [Example 169, (S)—N-Butyl-2-[1-(4-fluorophenyl)ethylamino]-6-(pyrazin-2-ylamino) isonicotinamide], the IC50 in assay [1] stood at 500 nM; in assay [2] it was 3 nM.
The matching figures for `C[C@H](Nc1nc(Nc2cnccn2)cc(-n2cc(C(=O)O)cn2)n1)c1ccc(F)cc1` [Example 90, (S)-1-{2-[1-(4-Fluorophenyl)ethylamino]-6-(pyrazin-2-ylamino)pyrimidin-4-yl}-1H-pyrazole-4-carboxylic acid]: 380 nM and 6.1 nM.
Consider `C[C@H](Nc1nc(Nc2cnccn2)cc(-c2cn[nH]c2)n1)c1ccc(F)cc1` [Example 34, (S)—N^2-[1-(4-Fluorophenyl)ethyl]-N^4-(pyrazin-2-yl)-6-(1H-pyrazol-4-yl)pyrimidine-2,4-diamine maleate], for which the half-maximal inhibitory concentration (IC50) in assay [1] was 59 nM; in assay [2], 0.51 nM.
The matching figures for `C[C@H](Nc1nc(Nc2cnccn2)cc(-c2cc[nH]n2)n1)c1ccc(F)cc1` [Example 24, (S)—N^2-[1-(4-Fluorophenyl)ethyl]-N^4-(pyrazin-2-yl)-6-(1H-pyrazol-3-yl)pyrimidine-2,4-diamine hydrochloride]: 53 nM and 1.1 nM.
As to `C[C@H](Nc1nc(Nc2cnccn2)cc(-c2cccc(C#N)c2)n1)c1ccc(F)cc1` [Example 81, (S)-3-{2-[1-(4-Fluorophenyl)ethylamino]-6-(pyrazin-2-ylamino)pyrimidin-4-yl}benzonitrile], the results for the IC50 in assay [1] and in assay [2] were 480 nM and 5.6 nM, respectively.
The matching figures for `C[C@H](Nc1nc(NCC2CCCO2)cc(Nc2cnccn2)n1)c1ccc(F)cc1` (stereo partly drawn) [Example 68, N^2-[(S)-1-(4-Fluorophenyl)ethyl]-N^4-(pyrazin-2-yl)-N^6-[(tetra hydrofuran-2-yl)methyl]pyrimidine-2,4,6-triamine]: 34 nM and 1.5 nM.
The matching figures for “4-{2-[(1S)-1-(4-Fluorophenyl)ethylamino]-6-(pyrazin-2-ylamino)pyrimidin-4-yl}-1λ^6,4-thiomorpholin-1,1-dione [Example 226]”: 24 nM and 1.1 nM.
On to `COCn1cc(-c2cc(Nc3cnccn3)nc(N[C@@H](C)c3ccc(F)cc3)c2)cn1` [Example 219, (S)—N^2-[1-(4-Fluorophenyl)ethyl]-4-[1-(methoxymethyl)-1H-pyrazol-4-yl]-N^6-(pyrazin-2-yl)pyridine-2,6-diamine], for which the IC50 worked out at 69 nM in assay [1] and 2.6 nM in assay [2].
The matching figures for `C[C@H](Nc1nc(Nc2cnccn2)cc(O[C@H]2CCCC[C@@H]2O)n1)c1ccc(F)cc1` [Example 101, (1S,2S)-2-{2-[(S)-1-(4-Fluorophenyl)ethylamino]-6-(pyrazin-2-ylamino)pyrimidin-4-yloxy}cyclohexanol hydrochloride]: 600 nM and 11 nM.
Turning to `C[C@H](Nc1nc(Nc2cnccn2)cc(N2CCC2=O)n1)c1ccc(F)cc1` [Example 45, (S)-1-{2-[1-(4-Fluorophenyl)ethylamino]-6-(pyrazin-2-ylamino)pyrimidin-4-yl}azetidin-2-one], the half-inhibitory concentration (IC50) is 2300 nM in assay [1] and 9 nM in assay [2].
The matching figures for `C[C@H](Nc1nc(Nc2cnccn2)cc(N2CCCC(C(N)=O)C2)n1)c1ccc(F)cc1` (stereo partly drawn) [Example 63, 1-{2-[(S)-1-(4-Fluorophenyl)ethylamino]-6-(pyrazin-2-ylamino)pyrimidin-4-yl}piperidin-3-carboxamide hydrochloride]: 36 nM and 1 nM.
